These results are taken from paper PMC10762078, “Role of UPF1-LIN28A interaction during early differentiation of pluripotent stem cells” (Nature Communications, 2024).

In test [1] the test system is nonsense-mediated mRNA decay (NMD). Nature of the test: NMD reporter mRNA by RT-qPCR in UPF1-depleted HeLa cells with FLAG-LIN28A and CPP-peptides (Supplementary Fig. 5d). Format: cell-based. The conditions noted are these: siUPF1 + FLAG-LIN28A, 2 μM, n = 3. How it is done: For CPP-conjugated peptide delivery, HeLa, 293T, and PA-1 cells were incubated with CPP-conjugated peptides or CPP-FITC at 2 μM in DMEM with 10% FBS for 12 h a day before cell harvest. hPSCs were treated with CPP-conjugated peptides at 10 μM in mTeSR Plus Medium, and the peptide-containing medium was changed every day over 10 days. The ROCK inhibitor (Tocris Bioscience, Y-27632) treated-hPSCs were dissociated into single cells using Accutase (Merck, SCR005) and differentiated into ectoderm, mesoderm, and endoderm using the STEMdiff Trilineage Differentiation Kit ([…] Technologies, 05230) following the manufacturer’s protocol. Differentiated cells treated with CPP-conjugated peptides were analysed at 0, 3, and 5 days for ectoderm and endoderm, and at 0, 3, and 4 days for mesoderm. […]
cDNA was synthesised using RevertAid Reverse Transcriptase (Thermo Fisher Scientific, EP0441) with synthesised random hexamer (Macrogen) for total RNA or stem-loop primers for miRNA. For RT-qPCR reactions, the SensiFAST SYBR No-ROX kit (Meridian Bioscience) was used according to the manufacturer’s protocol. All data analysis and visualisation were conducted using R 3.6.1 [www.r-project.org] or GraphPad Prism 10. RT primers for miRNA and RT-qPCR primer sequences are provided in Supplementary Data 6. […]

Test [2] deals with lineage markers in CHA15 cells. Nature of the test: RNA-seq of CHA15 cells during ectodermal, mesodermal and endodermal differentiation with CPP-peptides (Fig. 7a). Type of test: cell-based, Homo sapiens. The conditions noted are these: CHA15, 5 days. The procedure: For CPP-conjugated peptide delivery, HeLa, 293T, and PA-1 cells were incubated with CPP-conjugated peptides or CPP-FITC at 2 μM in DMEM with 10% FBS for 12 h a day before cell harvest. hPSCs were treated with CPP-conjugated peptides at 10 μM in mTeSR Plus Medium, and the peptide-containing medium was changed every day over 10 days. The ROCK inhibitor (Tocris Bioscience, Y-27632) treated-hPSCs were dissociated into single cells using Accutase (Merck, SCR005) and differentiated into ectoderm, mesoderm, and endoderm using the STEMdiff Trilineage Differentiation Kit ([…] Technologies, 05230) following the manufacturer’s protocol. Differentiated cells treated with CPP-conjugated peptides were analysed at 0, 3, and 5 days for ectoderm and endoderm, and at 0, 3, and 4 days for mesoderm.
Total RNA concentration was calculated using Quant-IT RiboGreen (Invitrogen, R11490). […] The libraries were quantified using the KAPA Library Quantification Kits for Illumina Sequencing platforms according to the qPCR Quantification Protocol Guide (KAPA BIOSYSTEMS, KR0405) and qualified using the TapeStation D1000 ScreenTape (Agilent). […]
We pre-processed the raw reads from the sequencer to remove low-quality reads and adapter sequences before analysis and aligned the processed reads to Homo sapiens (GRCh37) using HISAT v2.1.0[52]. […]

Test [3] relates to nonsense-mediated mRNA decay (NMD). Nature of the test: NMD reporter (Gl, GPx1) mRNA by RT-qPCR in LIN28A-expressing HeLa cells with CPP-peptides (Fig. 5c). Format: cell-based. The conditions noted are these: FLAG control (no LIN28A) HeLa, CPP-peptide. (In general: Quantitative PCR measures a nucleic acid by following its amplification.)

As to “KKKWCRKKKSSADEKRYRALKRTAERELLMNA [CPP-P8, CPP conjugated to P8]”, the “effect on NMD in absence of UPF1” value in test [1] was “did not affect NMD in the absence of LIN28A or UPF1”. Further, the “ectodermal marker levels” value in test [2] was “overall reduced the levels of its marker, in contrast to mesodermal and endodermal differentiation”.
In the case of “N-QKLDQKELQLEPM-C [P1, reference compound]”, in test [3] (normalised to MUP, replicate set2), the “relative GPx1 mRNA level” value came out at 1.035. Further, in test [3] (normalised to MUP, replicate set3), the “relative Gl mRNA level” value was found to be 1.014. In addition, in test [3] (mean in t-test output, n = 3), the “GPx1 mRNA, mean” value is reported as 0.2656 and the “Gl mRNA, mean” value is listed as 0.4223.
